Measured values: paper PMC5218480 (PLoS ONE, 2017)

Tested on: MV-4-11 cells
Test: Gene expression microarray analysis (Affymetrix PrimeView) and GSEA
Format: cell-based, human
Set-up: RFU PODN (11730768_x_at) / Fold change /veh PODN (11730768_x_at) / RFU LINC00158 (11744669_a_at) / Fold change /veh LINC00158 (11744669_a_at) / RFU DUSP10 (11751237_a_at) / Fold change /veh DUSP10 (11751237_a_at) / RFU ID3 (11757404_x_at) / Fold change /veh ID3 (11757404_x_at) / RFU PLEKHG5 (11737974_s_at) / Fold change /veh PLEKHG5 (11737974_s_at) / RFU LRRC4B (11730491_at) / Fold change /veh LRRC4B (11730491_at) / RFU GIMAP4 (11747438_a_at) / Fold change /veh GIMAP4 (11747438_a_at) / RFU KRT8 (11758183_x_at) / Fold change /veh KRT8 (11758183_x_at) / RFU CNN1 (11734310_a_at) / Fold change /veh CNN1 (11734310_a_at) / RFU VPS37D (11726825_at) / Fold change /veh VPS37D (11726825_at) / RFU C10orf10 (11716522_x_at) / Fold change /veh C10orf10 (11716522_x_at) / RFU KIR2DL2 /// KIR2DL4 /// KIR2DL5A /// KIR2DL5B /// KIR2DS1 /// KIR2DS2 /// KIR2DS3 /// KIR2DS4 /// KIR3DL3 /// KIR3DL3 /// KIR3DS1 (11738374_at) / Fold change /veh KIR2DL2 /// KIR2DL4 /// KIR2DL5A /// KIR2DL5B /// KIR2DS1 /// KIR2DS2 /// KIR2DS3 /// KIR2DS4 /// KIR3DL3 /// KIR3DL3 /// KIR3DS1 (11738374_at) / RFU C1QL1 (11718748_at) / Fold change /veh C1QL1 (11718748_at) / RFU TMPRSS4 (11747572_a_at) / Fold change /veh TMPRSS4 (11747572_a_at) / RFU HAMP (11756126_x_at) / Fold change /veh HAMP (11756126_x_at) / RFU RNFT2 (11725882_a_at) / Fold change /veh RNFT2 (11725882_a_at) / RFU NR4A2 (11747474_a_at) / Fold change /veh NR4A2 (11747474_a_at) / RFU ABCC12 (11746883_a_at) / Fold change /veh ABCC12 (11746883_a_at) / RFU TMEM136 (11760407_x_at) / Fold change /veh TMEM136 (11760407_x_at) / RFU CLDN22 /// WWC2 (11732394_at) / Fold change /veh CLDN22 /// WWC2 (11732394_at) / RFU HLA-DPB1 (11760878_x_at) / Fold change /veh HLA-DPB1 (11760878_x_at) / RFU SPINT1 (11716480_a_at) / Fold change /veh SPINT1 (11716480_a_at) / RFU GAP43 (11754022_s_at) / Fold change /veh GAP43 (11754022_s_at) / RFU A4GNT (11735810_at) / Fold change /veh A4GNT (11735810_at) / RFU PRB3 (11715151_x_at) / Fold change /veh PRB3 (11715151_x_at) / RFU TUBB4B (11761932_at) / Fold change /veh TUBB4B (11761932_at) / RFU CAPN14 (11732068_a_at) / Fold change /veh CAPN14 (11732068_a_at) / RFU TMCC2 (11721928_a_at) / Fold change /veh TMCC2 (11721928_a_at) / RFU IRGQ (11745062_a_at) / Fold change /veh IRGQ (11745062_a_at) / RFU FAM174B (11720279_a_at) / Fold change /veh FAM174B (11720279_a_at) / RFU TMPRSS4 (11748680_a_at) / Fold change /veh TMPRSS4 (11748680_a_at) / RFU FAM212B (11763350_a_at) / Fold change /veh FAM212B (11763350_a_at) / RFU PLEKHG5 (11743358_a_at) / Fold change /veh PLEKHG5 (11743358_a_at) / RFU ZSCAN30 (11745921_a_at) / Fold change /veh ZSCAN30 (11745921_a_at) / RFU CMKLR1 (11741424_a_at) / Fold change /veh CMKLR1 (11741424_a_at) / RFU LOC101060620 /// MAPK8IP1 (11723275_at) / Fold change /veh LOC101060620 /// MAPK8IP1 (11723275_at) / RFU SPTSSB (11747773_x_at) / Fold change /veh SPTSSB (11747773_x_at) / RFU PRSS12 (11739890_at) / Fold change /veh PRSS12 (11739890_at) / RFU BIN1 (11741810_x_at) / Fold change /veh BIN1 (11741810_x_at) / RFU WNT11 (11732464_a_at) / Fold change /veh WNT11 (11732464_a_at) / RFU C10orf10 (11716521_a_at) / Fold change /veh C10orf10 (11716521_a_at) / RFU C5orf56 (11738089_at) / Fold change /veh C5orf56 (11738089_at) / RFU CYB561 (11721691_x_at) / Fold change /veh CYB561 (11721691_x_at) / RFU ANKRD19P (11752326_a_at) / Fold change /veh ANKRD19P (11752326_a_at) / RFU OR2T12 /// OR2T33 /// OR2T8 (11738714_s_at) / Fold change /veh OR2T12 /// OR2T33 /// OR2T8 (11738714_s_at) / RFU VCAN (11748164_a_at) / Fold change /veh VCAN (11748164_a_at) / RFU JSRP1 (11732532_at) / Fold change /veh JSRP1 (11732532_at) / RFU KRTAP10-11 (11738290_x_at) / Fold change /veh KRTAP10-11 (11738290_x_at) / RFU MYO3A (11730013_a_at) / Fold change /veh MYO3A (11730013_a_at) / RFU EBF3 (11725865_a_at) / Fold change /veh EBF3 (11725865_a_at) / RFU CAMK2N1 (11719241_x_at) / Fold change /veh CAMK2N1 (11719241_x_at) / RFU C5orf56 (11738088_a_at) / Fold change /veh C5orf56 (11738088_a_at) / RFU OLFML3 (11715873_a_at) / Fold change /veh OLFML3 (11715873_a_at) / RFU LOC100653217 /// NTM (11731650_a_at) / Fold change /veh LOC100653217 /// NTM (11731650_a_at) / RFU MAPK11 (11762145_a_at) / Fold change /veh MAPK11 (11762145_a_at) / RFU FIZ1 (11724087_x_at) / Fold change /veh FIZ1 (11724087_x_at) / RFU OASL (11726364_x_at) / Fold change /veh OASL (11726364_x_at) / RFU SOX15 (11748057_x_at) / Fold change /veh SOX15 (11748057_x_at) / RFU CD79A (11719716_a_at) / Fold change /veh CD79A (11719716_a_at) / RFU HIST1H1D (11736915_at) / Fold change /veh HIST1H1D (11736915_at) / RFU CASKIN2 (11723855_a_at) / Fold change /veh CASKIN2 (11723855_a_at) / RFU LOC730098 (11760151_x_at) / Fold change /veh LOC730098 (11760151_x_at) / RFU OR4N2 (11742367_at) / Fold change /veh OR4N2 (11742367_at) / RFU PRRT2 (11749266_a_at) / Fold change /veh PRRT2 (11749266_a_at) / RFU SNX32 (11753110_a_at) / Fold change /veh SNX32 (11753110_a_at) / RFU CDHR5 (11726645_a_at) / Fold change /veh CDHR5 (11726645_a_at) / RFU RCAN1 (11760418_a_at) / Fold change /veh RCAN1 (11760418_a_at) / RFU FAM167A (11723789_a_at) / Fold change /veh FAM167A (11723789_a_at) / RFU FAM26E (11764081_at) / Fold change /veh FAM26E (11764081_at) / RFU ISYNA1 (11749810_s_at) / Fold change /veh ISYNA1 (11749810_s_at) / RFU ACY1 (11761880_at) / Fold change /veh ACY1 (11761880_at) / RFU 11764098_at / Fold change /veh 11764098_at / RFU SAMD14 (11745864_x_at) / Fold change /veh SAMD14 (11745864_x_at) / RFU NPB (11741838_a_at) / Fold change /veh NPB (11741838_a_at) / RFU TMPRSS6 (11731388_a_at) / Fold change /veh TMPRSS6 (11731388_a_at) / RFU KRTAP10-2 (11738614_at) / Fold change /veh KRTAP10-2 (11738614_at) / RFU ARHGAP8 /// PRR5-ARHGAP8 (11727945_x_at) / Fold change /veh ARHGAP8 /// PRR5-ARHGAP8 (11727945_x_at) / RFU KRTAP5-7 /// NADSYN1 (11734609_at) / Fold change /veh KRTAP5-7 /// NADSYN1 (11734609_at) / RFU RASL12 (11751679_a_at) / Fold change /veh RASL12 (11751679_a_at) / RFU CDKN2B (11736163_a_at) / Fold change /veh CDKN2B (11736163_a_at) / RFU PRF1 (11729649_at) / Fold change /veh PRF1 (11729649_at) / RFU, ZNF638 /// ZNF638-IT1 / Fold change vs veh, ZNF638 /// ZNF638-IT1 / RFU, PANK3 / Fold change vs veh, PANK3 / RFU, SH3YL1 / Fold change vs veh, SH3YL1 / RFU, ZEB2 / Fold change vs veh, ZEB2 / RFU, NRIP1 / Fold change vs veh, NRIP1 / RFU, PTTG1IP / Fold change vs veh, PTTG1IP / RFU, CAPN2 / Fold change vs veh, CAPN2 / RFU, MED14 / Fold change vs veh, MED14 / RFU, SNORA58 / Fold change vs veh, SNORA58 / RFU, C1orf63 / Fold change vs veh, C1orf63 / RFU, LRRFIP1 / Fold change vs veh, LRRFIP1 / RFU, NDUFAF7 / Fold change vs veh, NDUFAF7 / RFU, SLC12A2 / Fold change vs veh, SLC12A2 / RFU, IBTK / Fold change vs veh, IBTK / RFU, ESF1 / Fold change vs veh, ESF1 / Fold change vs veh, TMEM50B / RFU, TAOK1 / Fold change vs veh, TAOK1 / RFU, ACBD3 / Fold change vs veh, ACBD3 / RFU, TMA16 / Fold change vs veh, TMA16 / RFU, RWDD3 / Fold change vs veh, RWDD3 / RFU, BCAT1 / Fold change vs veh, BCAT1 / RFU, EDEM3 / Fold change vs veh, EDEM3 / RFU, TMEM33 / Fold change vs veh, TMEM33 / RFU, WDR75 / Fold change vs veh, WDR75 / RFU, AHCTF1 / Fold change vs veh, AHCTF1 / RFU, TFRC / Fold change vs veh, TFRC / RFU, ZDHHC17 / Fold change vs veh, ZDHHC17 / RFU, NOM1 / Fold change vs veh, NOM1 / RFU, ARL8B / Fold change vs veh, ARL8B / RFU, ZBTB11 / Fold change vs veh, ZBTB11 / RFU, TAMM41 / Fold change vs veh, TAMM41 / RFU, KIAA1704 /// LOC100996395 / Fold change vs veh, KIAA1704 /// LOC100996395 / RFU, ING1 / Fold change vs veh, ING1 / RFU, TRMT61B / Fold change vs veh, TRMT61B / RFU, FUBP3 / Fold change vs veh, FUBP3 / RFU, TP53 / Fold change vs veh, TP53 / RFU, TNKS2 / Fold change vs veh, TNKS2 / RFU, ZFP14 / Fold change vs veh, ZFP14 / RFU, ACTR2 / Fold change vs veh, ACTR2 / RFU, PPP3R1 / Fold change vs veh, PPP3R1 / RFU, PIK3R1 / Fold change vs veh, PIK3R1 / RFU, HNRNPA1 / Fold change vs veh, HNRNPA1 / RFU, RNF170 / Fold change vs veh, RNF170 / RFU, ZNF28 / Fold change vs veh, ZNF28 / RFU, RNGTT / Fold change vs veh, RNGTT / RFU, OGT / Fold change vs veh, OGT / RFU, BRD1 / Fold change vs veh, BRD1 / RFU, MARS / Fold change vs veh, MARS / RFU, ZNF655 / Fold change vs veh, ZNF655 / RFU, FAHD1 / Fold change vs veh, FAHD1 / RFU, BDP1 / Fold change vs veh, BDP1 / RFU, LRRCC1 / Fold change vs veh, LRRCC1 / RFU, ARID1A / Fold change vs veh, ARID1A / RFU, ZNF146 / Fold change vs veh, ZNF146 / RFU, ZNF330 / Fold change vs veh, ZNF330 / RFU, GPN3 / Fold change vs veh, GPN3 / RFU, C9orf123 / Fold change vs veh, C9orf123 / RFU, N4BP2L2 / Fold change vs veh, N4BP2L2 / RFU, ARFIP1 / Fold change vs veh, ARFIP1 / RFU, FAM179B / Fold change vs veh, FAM179B / RFU, BCL10 / Fold change vs veh, BCL10 / RFU, UHRF1BP1L / Fold change vs veh, UHRF1BP1L / RFU, BET1 / Fold change vs veh, BET1 / RFU, CNOT2 / Fold change vs veh, CNOT2 / RFU, ZNF268 / Fold change vs veh, ZNF268 / Fold change vs veh, ZNF507 / RFU, DGCR2 / Fold change vs veh, DGCR2 / RFU, WDSUB1 / Fold change vs veh, WDSUB1 / Fold change vs veh, HSP90B1 /// MIR3652 / RFU, ADSS / Fold change vs veh, ADSS / RFU, GK / Fold change vs veh, GK / RFU, ZNF148 / Fold change vs veh, ZNF148 / RFU, TAF9 / Fold change vs veh, TAF9 / RFU, SLC1A5 / Fold change vs veh, SLC1A5 / RFU, SLMO2 / Fold change vs veh, SLMO2 / RFU, ABCC4 / Fold change vs veh, ABCC4 / RFU, LOC101060439 /// RAP1B / Fold change vs veh, LOC101060439 /// RAP1B / RFU, RFX7 / Fold change vs veh, RFX7 / RFU, GTPBP10 / Fold change vs veh, GTPBP10 / RFU, CNEP1R1 / Fold change vs veh, CNEP1R1 / RFU, BIVM-ERCC5 /// ERCC5 / Fold change vs veh, BIVM-ERCC5 /// ERCC5 / RFU, ILF3 / Fold change vs veh, ILF3 / RFU 11762660_at / Fold change /veh 11762660_at / RFU VCAN (11757783_s_at) / Fold change /veh VCAN (11757783_s_at) / RFU DDX43 (11728927_at) / Fold change /veh DDX43 (11728927_at) / RFU KRT8 (11758188_x_at) / Fold change /veh KRT8 (11758188_x_at) / RFU NKD1 (11759106_at) / Fold change /veh NKD1 (11759106_at) / RFU SRD5A1 (11742802_a_at) / Fold change /veh SRD5A1 (11742802_a_at) / RFU TPSAB1 /// TPSB2 (11721975_s_at) / Fold change /veh TPSAB1 /// TPSB2 (11721975_s_at) / RFU GSTM3 (11746129_a_at) / Fold change /veh GSTM3 (11746129_a_at) / RFU IL23R (11737362_x_at) / Fold change /veh IL23R (11737362_x_at) / RFU TMEM51 (11727254_a_at) / Fold change /veh TMEM51 (11727254_a_at) / RFU PIWIL2 (11732686_x_at) / Fold change /veh PIWIL2 (11732686_x_at) / RFU ORM1 (11744905_x_at) / Fold change /veh ORM1 (11744905_x_at) / RFU CCDC152 (11743942_at) / Fold change /veh CCDC152 (11743942_at) / RFU ECM1 (11717891_a_at) / Fold change /veh ECM1 (11717891_a_at) / RFU IL23R (11748794_a_at) / Fold change /veh IL23R (11748794_a_at) / RFU TNFAIP8L3 (11732012_x_at) / Fold change /veh TNFAIP8L3 (11732012_x_at) / RFU MBOAT4 (11741988_at) / Fold change /veh MBOAT4 (11741988_at) / RFU 11764193_at / Fold change /veh 11764193_at / RFU TMEM53 (11763286_at) / Fold change /veh TMEM53 (11763286_at) / RFU MAGEB2 (11727129_at) / Fold change /veh MAGEB2 (11727129_at) / RFU TMEM200A (11744735_a_at) / Fold change /veh TMEM200A (11744735_a_at) / RFU CCDC152 (11751479_a_at) / Fold change /veh CCDC152 (11751479_a_at) / RFU FAM211A (11726209_a_at) / Fold change /veh FAM211A (11726209_a_at) / RFU RGS16 (11746705_a_at) / Fold change /veh RGS16 (11746705_a_at) / RFU VCAN (11755009_s_at) / Fold change /veh VCAN (11755009_s_at) / RFU RHOB (11743442_s_at) / Fold change /veh RHOB (11743442_s_at) / RFU RGS16 (11720943_a_at) / Fold change /veh RGS16 (11720943_a_at) / RFU RGS16 (11720944_at) / Fold change /veh RGS16 (11720944_at) / RFU, VPS4B / Fold change vs veh, VPS4B / RFU, CREB1 / Fold change vs veh, CREB1 / RFU, DNAJC13 / Fold change vs veh, DNAJC13 / RFU, GNAQ / Fold change vs veh, GNAQ / RFU, CDK5R1 / Fold change vs veh, CDK5R1 / RFU, ZRANB3 / Fold change vs veh, ZRANB3 / RFU, CUL4A / Fold change vs veh, CUL4A / RFU, CCNY / Fold change vs veh, CCNY / RFU, UFL1 / Fold change vs veh, UFL1 / RFU, COG3 / Fold change vs veh, COG3 / RFU, DIAPH2 / Fold change vs veh, DIAPH2 / RFU, SKA2 / Fold change vs veh, SKA2 / RFU, AFF3 / Fold change vs veh, AFF3 / RFU, LMF1 / Fold change vs veh, LMF1 / RFU, IPO11 / Fold change vs veh, IPO11 / RFU, DFFB / Fold change vs veh, DFFB / RFU, FOXP1 / Fold change vs veh, FOXP1 / RFU, CARD8 / Fold change vs veh, CARD8 / RFU, STRN3 / Fold change vs veh, STRN3 / RFU, ADK / Fold change vs veh, ADK / RFU, RASSF2 / Fold change vs veh, RASSF2 / RFU, WIPF1 / Fold change vs veh, WIPF1 / RFU, LARP1B / Fold change vs veh, LARP1B / RFU, RASA1 / Fold change vs veh, RASA1 / RFU, RB1 / Fold change vs veh, RB1 / RFU, PPFIA1 / Fold change vs veh, PPFIA1 / RFU, MAT2A / Fold change vs veh, MAT2A / RFU, CCT5 / Fold change vs veh, CCT5 / RFU, WDR92 / Fold change vs veh, WDR92 / RFU, CUX1 / Fold change vs veh, CUX1 / RFU, TTC7A / Fold change vs veh, TTC7A / RFU, TMEM135 / Fold change vs veh, TMEM135 / RFU, DEPTOR / Fold change vs veh, DEPTOR / RFU, CPM / Fold change vs veh, CPM / RFU, DNAJB6 / Fold change vs veh, DNAJB6 / RFU, CACNA2D3 / Fold change vs veh, CACNA2D3 / RFU, DTX4 / Fold change vs veh, DTX4 / RFU, TFCP2 / Fold change vs veh, TFCP2 / RFU, GMCL1 /// GMCL1P1 / Fold change vs veh, GMCL1 /// GMCL1P1 / RFU, AEBP2 / Fold change vs veh, AEBP2 / RFU, SNHG1 /// SNORD22 /// SNORD25 /// SNORD26 /// SNORD27 /// SNORD28 /// SNORD29 /// SNORD31 / Fold change vs veh, SNHG1 /// SNORD22 /// SNORD25 /// SNORD26 /// SNORD27 /// SNORD28 /// SNORD29 /// SNORD31 / Fold change (Aza/veh), C12orf56 (ProbeSet 11735607_a_at) / Fold change (ACY-1035/veh), C12orf56 (ProbeSet 11735607_a_at) / Fold change (Aza/veh), FGFR1OP (ProbeSet 11751329_s_at) / Fold change (ACY-1035/veh), FGFR1OP (ProbeSet 11751329_s_at) / Fold change (Aza/veh), VPS36 (ProbeSet 11739960_a_at) / Fold change (ACY-1035/veh), VPS36 (ProbeSet 11739960_a_at) / RFU SYPL1 (11715823_x_at) / Fold change /veh SYPL1 (11715823_x_at) / RFU IGFBP7 (11715501_s_at) / Fold change /veh IGFBP7 (11715501_s_at) / RFU REEP3 (11722064_at) / Fold change /veh REEP3 (11722064_at) / RFU IGLL1 (11728026_x_at) / Fold change /veh IGLL1 (11728026_x_at): dose or concentration left out as unconfirmed
Conditions: MV-4-11 cells, 48 hours

Nc1ncn([C@@H]2O[C@H](CO)[C@@H](O)[C@H]2O)c(=O)n1 [azacitidine]
RFU KIR2DL2 /// KIR2DL4 /// KIR2DL5A /// KIR2DL5B /// KIR2DS1 /// KIR2DS2 /// KIR2DS3 /// KIR2DS4 /// KIR3DL3 /// KIR3DL3 /// KIR3DS1 (11738374_at): 10.60 RFU
